88 compounds from a melting point compilation (Tetko et al.; mined from patent text by program, amines drawn as free bases though some values may be those of a salt) can be followed below.

What is called melting point is the temperature of the solid-liquid transition.

The structures appear in SMILES notation.

`Cc1cc(CNC(=O)c2cc(N3CCN(Cc4ccc(F)cc4)C3=O)n[nH]2)n[nH]1`: the melting point is 254 to 255 °C. Compound `COc1cc(N)c(Cl)cc1C(=O)NC1CCN(CC2CCN(C(=O)Nc3ccccc3)CC2)CC1` showed a melting point of 212 to 214 °C.

`COc1ccc(-c2nc(-c3ccc(F)cc3)c(-c3ccncc3)[nH]2)cc1` registered a melting point of 264 to 265 °C. `O=S(=O)(c1ccccc1)n1ccnc1` showed a melting point of 82 to 83 °C.

The compound `CC(C)Oc1cc(Oc2ccc(S(C)(=O)=O)cn2)cc2cc(C3=NCC(CCO)S3)[nH]c12` (stereo not drawn) gave a melting point of 172 to 173 °C. In turn, `Cc1cc2c(-c3ccc(Br)cc3)c(CC(=O)O)c(=O)oc2cc1Cl` registered a melting point of 238 to 239 °C. The same measure for `CC(=O)OC1COC(n2c(Br)nc3cc(Cl)c(Cl)cc32)C(OC(C)=O)C1OC(C)=O` (stereo not drawn): 100 to 110 °C; for `COc1cccc2c1Oc1sc(C)cc1C(=O)N2`: 160 to 164 °C; for `CCCCCCCC(=O)c1cn(CCCC(=O)O)c2ccccc12`: 100 to 102 °C.

`Cn1c(=NC(=S)Nc2ccccc2)n(C)c2ccccc21` had a melting point of 245 °C. Compound `CCOC(=O)c1c(N)nn(-c2c(Cl)cc(C(F)(F)F)cc2Cl)c1N` displayed a melting point of 196 to 197 °C.

`Nc1ccc(S(=O)(=O)c2cc(-c3cccc(Cl)c3)nc(N3CCCC3)c2)cc1` had a melting point of 260 to 261 °C. To `O=C(C1CC=CCC1)N1c2ccccc2CCC1CN1CCN(c2cccc3[nH]ccc23)CC1` (stereo not drawn) belongs 156 to 160 °C. To `O=C1CC(C(F)(F)F)CC(=O)N1c1cc(O)c(Cl)cc1F` belongs 112 to 114 °C. With `CC(C)N1C(=O)C(C)(C)N=C(c2ccccc2Cl)c2cc(N)ccc21`, the melting point was in the range of 243 to 244 °C. The same measure for `CN1CCN(c2cccc3c2CC(=O)CC3)CC1`: above 85 °C; for `CC(C)Cn1c(CNC(=O)OC(C)(C)C)c(-c2ccccc2F)c2cc(OCc3ccccc3)ccc2c1=O`: 138 to 139 °C; for `CCOC(=O)c1cc(-c2ccc3ccccc3c2)[nH]c1N`: 149 to 151 °C.

Consider `Cc1c(-c2cc(C(F)(F)F)cc(C(F)(F)F)c2)c(F)cc2nc(N)nc(N)c12`, for which the melting point fell in the range of 224 to 225 °C.

`O=C1SCC(O)=C1Cc1ccc(OCCc2ccccc2)cc1`: the melting point lay within 170 to 171 °C. The same measure for `CC12CCC3C(CC=C4CC(O)CCC43CSSCCO)C1CCC2=O` (stereo not drawn): 129 to 130 °C.

As for `Cc1c(NC(=O)CC(C)(C)C)cc2c(c1C)OC(C)(C)C2(O)c1ccco1` (stereo not drawn), the melting point is 108 to 110 °C. The same measure for `CSc1cc(C)nc(SC)c1NC(=O)CCCCCSc1nc2ccccc2o1`: 120 to 121 °C. Compound `O=C(O)c1cnc2cc(O)cc(O)c2c1` returned a melting point above 260 °C.

As to `COc1cc2c(c(C(=O)O)c1OC)CCN(Cc1ccccc1)CC2c1ccccc1` (stereo not drawn), the melting point was in the range of 145 to 153 °C. Compound `O=C(Cn1c(-c2ccc(Cl)cc2)nc2ncccc21)c1ccccc1` displayed a melting point of 262 to 263 °C. `CCCOc1ccccc1-c1nc2nc(OC)ncc2c(=O)[nH]1` registered a melting point of 231 °C. The same measure for `COC(=O)c1ccc2nc3cc(C)sc3c(=O)n2c1`: 215 to 216 °C. The same measure for `COc1cc(C(=O)c2sc(NC(=O)c3ccncc3)nc2-c2ccco2)ccn1`: 237 to 239 °C. Turning to `COc1ccc(-c2ccc3c(C(=O)c4ccn5c4CSC5c4cccnc4)c[nH]c3c2)cc1` (stereo not drawn), the melting point was 246 to 248 °C. To `ClC(Cl)=CCOc1cc(Cl)c(OCCCOc2ccc(-c3nn[nH]n3)cc2)c(Cl)c1` belongs 159 to 161 °C; to `CCN(C)N1CSC(=Cc2cc(C(C)(C)C)c(O)c(C(C)(C)C)c2)C1=O`, 134 to 135 °C.

`CCOc1cc2ncc(C#N)c(Nc3ccc4c(=O)[nH][nH]c(=O)c4c3)c2cc1OCC`: the melting point was above 270 °C. As to `Cc1cc(C(=S)Cl)c(Cl)cc1Cl`, the melting point was 94 to 95 °C. The same measure for `CS(=O)(=O)c1cc(CBr)ccc1Br`: 120 to 124 °C.

Compound `COCC(O)Cn1c2ccc(OC)cc2c2c3c(c(-c4ccccc4)cc21)C(=O)NC3=O` (stereo not drawn) yielded a melting point of 128 to 136 °C.

`CC(C)(C)OC(=O)N1CCC(COc2ccc([N+](=O)[O-])cc2)CC1` returned a melting point of 130 to 131 °C.

`COC(=O)C1OC(OC(=N)C(Cl)(Cl)Cl)C(OC(C)=O)C(OC(C)=O)C1OC(C)=O` (stereo not drawn) yielded a melting point of 108 °C. The compound `CC(=O)n1c(=O)n(CCN2CCC(CC(=O)c3ccc(F)cc3)CC2)c2ccccc21` gave a melting point of 149 °C. In turn, `CC1CCN(Cc2cccc(OCCCNS(=O)(=O)CCNc3ccc(Cl)c(Cl)c3)c2)CC1` gave a melting point of 130 to 135 °C. As for `Nc1cc(Cl)c(OCc2ccccc2-c2ccccc2)c(Cl)c1`, the melting point lay in the range of 67 to 69 °C.

As for `CN1CC(c2cccc(OCc3ccc4ccccc4n3)c2)OC1=O` (stereo not drawn), the melting point is 75 to 77 °C. `COc1ccc2sc(Nc3ccc(OCCN4CCCC4)cc3)nc2c1` returned a melting point of 167 to 168 °C. The same measure for `COc1ccc(Cn2nnc(-c3ccc(OC)c(C(=O)NCc4ccc(F)cc4)c3)n2)cc1`: 156 to 158 °C; for `CN(C)CCCN(C)C(=O)NC(Cc1c[nH]c2ccccc12)C(=O)CCc1cc(C(F)(F)F)cc(C(F)(F)F)c1` (stereo not drawn): 135 to 137 °C; for `COc1ccc(-c2coc3cc(O)ccc3c2=O)c(OC)c1`: 238 to 240 °C. Consider `COc1ccc(CN2CC=C(/C=C/c3ccccc3)CC2)cc1`, for which the melting point lay in the range of 144 to 146 °C.

Compound `O=S(=O)(c1ccccc1)c1ncc(C(F)(F)F)cc1Cl` showed a melting point of 86 to 87 °C. The same measure for `Clc1ccc2nc(-c3ccccc3)c(-c3ccnnc3)n2n1`: 200 to 207 °C; for `CCS(=O)(=O)c1cc(S(N)(=O)=O)sc1S(=O)(=O)CC`: 176 to 177 °C; for `CN1CCN(c2cccc3ccc(NC(=O)C(F)(F)F)cc23)CC1`: 159 to 160 °C. The same measure for `COC(=O)C(OC)c1nsc2ccc(-n3c(=O)cc(C(F)(F)F)n(C)c3=O)cc12` (stereo not drawn): 166 to 168 °C. `Cc1nc(OC(C)C(=O)O)nn1-c1ccccc1` (stereo not drawn): the melting point was in the range of 157 to 159 °C. `O=C(O)c1cn(C2COC2)c2c(Cl)c(F)c(F)cc2c1=O` had a melting point above 300 °C. The compound `CCCc1cc2c(=O)n3cc(C(=O)O)ccc3nc2s1` returned a melting point of 250 to 254 °C.

Consider `O=C(CBr)c1ccc(Br)s1`, for which the melting point was 79 °C. As for `Cc1cc(S(N)(=O)=O)n(C)n1`, the melting point fell in the range of 63 to 66 °C. To `CCOC(=O)c1ccc2c(c1)C(=CCCI)CN2` belongs 81 °C; to `Cc1ccc(C(=O)N[C@H](C)C(N)=O)cc1-n1c(C)cc(OCc2ccccc2CNC(=O)Nc2cc(C(C)(C)C)nn2-c2ccc(O)c(Cl)c2)c(Cl)c1=O`, 192 to 193 °C; to `COc1ccc2c(c1OC)C(=O)C(O)=C(C)C2=O`, 218 °C. To `CC(=O)n1c2ccccc2c2nc3ccccc3cc21` belongs 163 to 165 °C. To `CC(=O)NC[C@H]1CN(c2ccc(N3CCN(C(=O)OC(C)(C)C)CC3)c(F)c2)C(=O)O1` belongs 153 to 159 °C; to `NCc1ccccc1C1CCN(c2c(F)c(N)c3c(=O)c(C(=O)O)cn(C4CC4)c3c2F)C1` (stereo not drawn), 164 to 165 °C. On to `CN(C)c1ccc(C2OCCN2CCNc2ccc(NCCN3CCOC3c3ccc(N(C)C)cc3)c3c2C(=O)c2c(O)ccc(O)c2C3=O)cc1` (stereo not drawn), for which the melting point lay within 150 to 154 °C. `COn1c(C)nc2cc(C(=O)c3ccccc3)ccc21` showed a melting point of 67.7 °C. Consider `Clc1cccnc1-c1ccc2[nH]nc(Nc3cnccn3)c2c1`, for which the melting point is 228 to 230 °C. The same measure for `OCc1cccc(OCc2ccc3ccccc3n2)c1`: 70 °C; for `Cc1cc(C(C)(C)C)cc2c1OCC(/C=C/C=C/C=C/C(=O)O)=C2`: 225 to 227 °C; for `CCOCC(=O)Nc1occ(C(C)(C)C)c1C#N`: 98 °C. The same measure for `CCOC(=O)c1c(-c2ccccc2Cl)c2cc(CC)sc2[nH]c1=O`: 126 to 127 °C; for `O=C(c1c[nH]c2nc(Cl)ccc12)N1CCN2CCC1CC2`: 228 to 229 °C; for `O=C1[C@@H]2Cc3ccccc3CN2C(=O)N1c1cc(Cl)cc(Cl)c1`: 243 °C.

`CC(C)(C)c1cc(C(C)(CC(=O)NN)c2cc(C(C)(C)C)c(O)c(C(C)(C)C)c2)cc(C(C)(C)C)c1O` displayed a melting point of 172 °C.

The compound `CC(=O)NC1CCCC1CC(Cl)C#N` (stereo not drawn) yielded a melting point of 114 to 117 °C. For the compound `Nc1ccsc1C(=O)NCC1CCN(C[C@H]2COc3ccc(Cl)cc3O2)CC1`, the melting point lay within 200 to 202 °C.

In the case of `N#Cc1cnc2cc3cc(O)c(O)cc3cc2c1Nc1ccc(Cl)cc1Cl`, the melting point was above 260 °C. `CC(C)(C)OC(=O)N[C@@H](Cc1ccc(-c2ccccc2)cc1)c1nnnn1CCC#N` had a melting point of 184 to 185 °C.

For `COC(=O)N1CCc2onc(O)c2CC1`, the melting point is 127 to 128 °C. To `CC1Cc2ccccc2CN(CO)C1=O` (stereo not drawn) belongs 114 to 116 °C.

`CNC(=O)c1ccc(NC(=O)Oc2ccccc2)cc1` displayed a melting point of 190 to 192 °C. To `Cc1cccc2[nH]c3c(c12)CCOC3(C)CC(=O)O` (stereo not drawn) belongs 132 to 134 °C; to `CC(C)(C)C(=O)C(Br)C(c1ccc(Cl)cc1Cl)S(=O)(=O)c1ccccc1` (stereo not drawn), 135 to 136 °C.

In turn, `O=CNc1ccc(-c2ccc(C(=O)N3CCN4CCC3CC4)o2)cc1` came in with a melting point of 236 °C.

`Cc1c(S(=O)(=O)Nc2ccc(-c3nc(C(=O)O)cs3)cc2S(C)(=O)=O)sc2ccc(F)cc12` had a melting point of 257 to 258 °C. In turn, `CCn1cc(C)c(NS(=O)(=O)c2ccc(N)cc2)nc1=O` registered a melting point of 176 to 178 °C. To `CC(=O)Nc1ccc(-c2cc(=O)c(C(=O)O)cn2-c2ccc(F)cc2)cc1` belongs 249 to 250 °C; to `CCOC(=O)c1c(C(C)Cl)nc2c(C(F)(F)F)cccc2c1O` (stereo not drawn), 104 °C.

For the compound `CCOC(=O)[C@H](CCc1ccccc1)N[C@@H](C)C(=O)N1CC2(C[C@H]1C(=O)O)SCCS2`, the melting point lay within 124 to 126 °C.
